Experimental data from patent publication US7507860B2 (Pfizer Inc., priority 2004, dated 2009).
Residue numbers refer to the chain shown, from its start. Where two headings read alike, the source gives them in different places.

Experiments:
androgen receptor = target: T1, androgen receptor (Homo sapiens, UniProt P10275); test: AR antagonist cell assay (MDA-MB453-MMTV clone 54-19 luciferase reporter, 100 pM DHT); type: cell-based
T1 sequence (P10275 1-920 Q868H): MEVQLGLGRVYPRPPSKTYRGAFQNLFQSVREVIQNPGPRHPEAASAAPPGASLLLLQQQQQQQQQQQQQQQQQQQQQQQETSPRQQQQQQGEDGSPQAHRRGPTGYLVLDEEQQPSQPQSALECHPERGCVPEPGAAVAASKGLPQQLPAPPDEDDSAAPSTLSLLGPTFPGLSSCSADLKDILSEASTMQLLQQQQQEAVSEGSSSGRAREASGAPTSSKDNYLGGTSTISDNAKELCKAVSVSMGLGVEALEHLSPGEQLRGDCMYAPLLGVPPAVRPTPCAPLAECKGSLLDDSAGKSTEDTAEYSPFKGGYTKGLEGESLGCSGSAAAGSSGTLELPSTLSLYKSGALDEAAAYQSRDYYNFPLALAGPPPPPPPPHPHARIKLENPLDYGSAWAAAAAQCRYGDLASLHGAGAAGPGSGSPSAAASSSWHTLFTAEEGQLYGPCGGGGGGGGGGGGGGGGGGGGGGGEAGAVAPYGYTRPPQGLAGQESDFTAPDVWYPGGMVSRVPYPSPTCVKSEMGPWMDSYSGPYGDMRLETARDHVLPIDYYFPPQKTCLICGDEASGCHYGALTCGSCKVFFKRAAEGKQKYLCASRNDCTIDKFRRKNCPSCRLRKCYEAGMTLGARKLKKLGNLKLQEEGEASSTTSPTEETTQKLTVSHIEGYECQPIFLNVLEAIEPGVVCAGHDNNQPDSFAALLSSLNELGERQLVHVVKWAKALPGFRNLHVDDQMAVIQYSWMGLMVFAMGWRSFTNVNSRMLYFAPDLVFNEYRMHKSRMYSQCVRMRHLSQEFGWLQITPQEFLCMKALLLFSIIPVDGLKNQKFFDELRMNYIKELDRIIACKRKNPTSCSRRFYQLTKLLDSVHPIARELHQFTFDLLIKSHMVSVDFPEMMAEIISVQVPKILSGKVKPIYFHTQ
Summary of the method: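 MDA-MB453 cells stably carrying an MMTV-ARE firefly luciferase reporter were plated overnight at 10,000/well in phenol-red-free, charcoal-stripped serum medium. Cells were stimulated with 100 pM DHT (final) for 17 hr at 37 °C, and AR antagonism was read as luciferase signal; values are means of multiple tests.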

[1] = target: T2, human androgen receptor (hAR) (Homo sapiens, UniProt P10275); test: Competitive binding analysis on baculovirus/Sf9 generated hAR extracts with 3H-DHT tracer; conditions: hAR extract, 1 nM 3H-DHT, one hour at 4° C, mean of multiple tests
T2 construct: made in house; host or cells: baculovirus/Sf9 insect cells (crude extract)
T2 sequence (P10275 1-920): T1 sequence (P10275 1-920 Q868H) with H868Q
Summary of the method: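 Baculovirus/Sf9-expressed hAR extract incubated with hydroxylapatite, 1 nM 3H-DHT and decreasing compound concentrations for 1 h at 4 °C, then washed three times to remove unbound tracer. Bound 3H-DHT compared with no-competitor maximum; affinity given as concentration inhibiting half of maximum binding, mean of multiple tests.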

[2] = MDA-MB453-MMTV clone 54-19, inhibition of 100 pM DHT induction, 17 hr; mean of multiple tests; read-out: AR Cell IC50
[3] = read-out: AR Cell IC50; MDA-MB453-MMTV clone 54-19, inhibition of 100 pM DHT induction, 17 hr; mean of multiple tests

Row | Compound | IC50 (androgen receptor; [2]) [nM] | IC50 ([1]; AR Binding IC50 (nM)) [nM] | IC50 ([1]; read-out: AR Binding IC50) [nM] | IC50 (androgen receptor; [3]) [nM]
1 | CCC[C@@H](Oc1ccc(C#N)c(C(F)(F)F)c1)C(=O)NCc1ccccc1C [Example 96, (R)-2-(Cyano-3-trifluoromethyl-phenoxy)-pentanoic acid 2-methyl-benzylamide] | 138 | 95 |  | 
2 | CC(C)C[C@@H](Oc1ccc(C#N)c(C(F)(F)F)c1)C(=O)NCCc1ccc(O)cc1 [Example 111] | 164 |  | 148 | 
3 | CCC[C@H](Oc1ccc(C#N)c(Cl)c1)C(=O)NCCc1c[nH]c2ccccc12 [Example 106, (S)-2-(3-Chloro-4-cyano-phenoxy)-pentanoic acid [2-(1H-indol-3-yl)-ethyl]-amide] | 3 |  | 47 | 
4 | CCCC(Oc1ccc(C#N)c(C(F)(F)F)c1)C(=O)NCc1ccc(OC)cc1 (stereo not drawn) [Example 46, 2-(4-Cyano-3-trifluoromethyl-phenoxy)-pentanoic acid-4-methoxy-benzylamide] | 638 |  | 103 | 
5 | CCC[C@H](Oc1ccc(C#N)c(Cl)c1)C(=O)NCc1ccccc1 [Example 104, (S)-2-(3-Chloro-4-cyano-phenoxy)-pentanoic acid benzylamide] |  |  | 241 | 7
6 | CCC(COC)NC(=O)C(CC(C)C)Oc1ccc(C#N)c(C(F)(F)F)c1 (stereo not drawn) [Example 82, 2-(4-Cyano-3-trifluoromethyl-phenoxy)-4-methyl-pentanoic acid (1-methoxymethyl-propyl)-amide] | > 1000 |  | 218 | 
7 | CCCC(Oc1ccc(C#N)c(C(F)(F)F)c1)C(=O)NCCc1cccc(OC)c1 (stereo not drawn) [Example 64, 2-(4-Cyano-3-trifluoromethyl-phenoxy)-pentanoic acid-[2-(3-methoxy-phenyl)ethyl]-amide] | > 1000 |  | 220 | 
8 | CCC[C@H](Oc1ccc(C#N)c(C(F)(F)F)c1)C(=O)NCCc1ccc(O)cc1 [Example 109] | 58 |  | 251 | 
9 | CCCC(Oc1ccc(C#N)c(C(F)(F)F)c1)C(=O)NCc1ccc2nsnc2c1 (stereo not drawn) [Example 31, 2-(4-Cyano-3-trifluoromethyl-phenoxy)-pentanoic acid (benzo[1,2,5]thiadiazo-5-yl-methyl)-amide] | > 1000 |  | 83 | 
10 | CCCC(Oc1ccc(C#N)c(Cl)c1)C(=O)NCCc1c[nH]c2ccccc12 (stereo not drawn) [Example 101, 2-(3-Chloro-4-cyano-phenoxy)-pentanoic acid [2-(1H-indol-3-yl)-ethyl]-amide] | 38 |  | 53 | 
11 | CC(C)CC(Oc1ccc(C#N)c(C(F)(F)F)c1)C(=O)NCc1cccnc1 (stereo not drawn) [Example 19, 2-(4-Cyano-3-trifluoromethyl-phenoxy)-4-methyl-pentanoic acid (pyridin-3-yl-methyl)-amide] | > 1000 |  | 131 | 
12 | CC(C)C(Oc1ccc(C#N)c(C(F)(F)F)c1)C(=O)NCc1ccccc1 (stereo not drawn) [Example 92, N-Benzyl-2-(4-Cyano-3-trifluoromethyl-phenoxy)-3-methyl-butyramide] | 562 |  | 348 | 
13 | CCCC(Oc1ccc(C#N)c(C(F)(F)F)c1)C(=O)NCCc1c[nH]c2ccccc12 (stereo not drawn) [Example 65, 2-(4-Cyano-3-trifluoromethyl-phenoxy)-pentanoic acid [2-(1H-indol-3-yl)ethyl]amide] | 64 |  | 33 | 
14 | Cc1ccccc1CNC(=O)C(CC(C)C)Oc1ccc(C#N)c(C(F)(F)F)c1 (stereo not drawn) [Example 38, 2-(4-Cyano-3-trifluoromethyl-phenoxy)-4-methyl-pentanoic acid-2-methyl-benzylamide] | > 1000 |  | 15 | 
15 | COc1ccccc1CNC(=O)C(CC(C)C)Oc1ccc(C#N)c(C(F)(F)F)c1 (stereo not drawn) [Example 35, 2-(4-Cyano-3-trifluoromethyl-phenoxy)-4-methyl-pentanoic acid-2-methoxy-benzylamide] | 768 |  | 77 | 
16 | CCCC(Oc1ccc(C#N)c(Cl)c1)C(=O)NCc1ccccc1 (stereo not drawn) [Example 102, 2-(3-Chloro-4-cyano-phenoxy)-pentanoic acid benzylamide] |  |  | 125 | 27
17 | CCC[C@@H](Oc1ccc(C#N)c(C(F)(F)F)c1)C(=O)NCc1ccccc1 [Example 95, (R)-2-(4-Cyano-3-trifluoromethyl-phenoxy)-pentanoic acid benzylamide] | 32 | 126 |  | 
18 | CCC[C@H](Oc1ccc(C#N)c(Cl)c1)C(=O)NCCc1ccc(O)cc1 [Example 105, (S)-2-(3-Chloro-4-cyano-phenoxy)-pentanoic acid [2-(4-hydroxy-phenyl)ethyl]amide] |  |  | 241 | 88
19 | CCCC(Oc1ccc(C#N)c(C(F)(F)F)c1)C(=O)N[C@H](C)c1ccc(OC)cc1 (stereo in doubt) [Example 123, 2-(4-Cyano-3-trifluoromethyl-phenoxy)-pentanoic acid [1-(4-methoxy-phenyl)-ethyl]-amide] | 681 |  | 653 | 
20 | CC(C)CC(Oc1ccc(C#N)c(C(F)(F)F)c1)C(=O)NCc1ccc(O)c(O)c1 (stereo not drawn) [Example 74, 2-(4-Cyano-3-trifluoromethyl-phenoxy)-4-methyl-pentanoic acid-3,4-dihydroxy-benzylamide] | 976 |  | 139 | 
21 | CCCCC(Oc1ccc(C#N)c(C(F)(F)F)c1)C(=O)NCc1ccccc1 (stereo not drawn) [Example 91, 2-(4-Cyano-3-trifluoromethyl-phenoxy)-hexanoic acid benzylamide] | 535 |  | 70 | 
22 | Cc1ccc(NC(=O)C(CC(C)C)Oc2ccc(C#N)c(C(F)(F)F)c2)cc1O (stereo not drawn) [Example 78, 2-(4-Cyano-3-trifluoromethyl-phenoxy)-4-methyl-pentanoic acid (3-hydroxy-4-methyl-phenyl)-amide] | 948 |  | 121 | 
23 | CC(C)CC(Oc1ccc(C#N)c(C(F)(F)F)c1)C(=O)NCc1cccs1 (stereo not drawn) [Example 12, 2-(4-Cyano-3-trifluoromethyl-phenoxy)-4-methyl-pentanoic acid (thiophen-2-yl-methyl)-amide] | > 1000 |  | 86 | 
24 | CCCC(Oc1ccc(C#N)c(C(F)(F)F)c1)C(=O)NCc1ccc(C)cc1C (stereo not drawn) [Example 45, 2-(4-Cyano-3-trifluoromethyl-phenoxy)-pentanoic acid-2,4-dimethyl-benzylamide] | > 1000 |  | 58 | 
